Results reported in patent US6589943B2, “Formulation of amphiphilic heparin derivatives for enhancing mucosal absorption” (Mediplex Corporation, Korea, priority 2001, dated 2003).

Tests used:
[1] = zeta potential of particles in sodium bicarbonate buffer; format: physicochemical
Method: Surface Charges of Heparin-DOCA Particle. Zeta potentials of heparin-DOCA particles in sodium bicarbonate buffer were measured according to procedures well known in the art. The negative potential of heparin-DOCA conjugate particles was decreased by mixing with free DOCA. This was due to the fact that the DOCA moiety coupled to heparin could be exposed on the surface of heparin-DOCA conjugate particles by mixing with free DOCA.

[2] = background, literature; cited from earlier work

Row | Molecule | Zeta Potential [1] | absorption in the GI tract [2]
1 | C[C@H](CCC(=O)O)[C@H]1CC[C@H]2[C@@H]3CC[C@@H]4C[C@H](O)CC[C@]4(C)[C@H]3C[C@H](O)[C@]12C [Bile Acid, deoxycholic acid] | −22.3 ± 11.4 mv | 
2 | heparin |  | not absorbed in the GI tract
